Test results reported in doi:10.1101/2024.12.03.626679, “Structure of the SMYD2-PARP1 Complex Reveals Both Productive and Allosteric Modes of Peptide Binding” (bioRxiv, 2024).
pIC50: −log10 of the molar value. No end group written: not given here.

Key:
[1] = tested on: histone H4; experiment: Antibody-based methyltransferase assay on H4; type: biochemical; settings: versus wild-type SMYD2; 30°C overnight, Western blot
Protocol: (§1) An antibody-based methyltransferase assay was carried out similarly to a previously described method ([29]). Reactions were performed by incubating SMYD2 proteins with H3 or H4 in the presence of AdoMet at 30°C overnight in a reaction buffer containing 50 mM Tris pH 8.5, 25 mM NaCl, 5% glycerol, and 2 mM DTT. Lysine methylation was detected by Western blot analysis using antibodies against mono-, di-, and trimethylated lysine (ab23366 & ab76118, Abcam). Enzymatic activities were quantified based on chemiluminescence using a CCD gel imager.

[2] = tested on: PARP1(518–1014); experiment: Methyltransferase activity of SMYD2 proteins on PARP1(518–1014), MTase-Glo assay; type: biochemical, human; settings: versus wild-type SMYD2
Protocol: Steady-state enzyme kinetics was carried out using the MTase-Glo methyltransferase assay according to the manufacturer’s instructions (Promega). […] After incubating the reactions with the MTase-Glo reagent and MTase-Glo Detection Solution, the amount of produced AdoHcy was determined by measuring luminescent signals using a microplate reader. The reactions were quantified using an AdoHcy standard curve that correlates the luminescence intensity to the AdoHcy concentration. Enzyme kinetic constants (KM, kcat, and Hill coefficient) were determined using initial velocity measurements at varying substrate concentrations by fitting them to a standard Michaelis-Menten kinetics model and the Hill equation.

[3] = tested on: histone H3; experiment: Antibody-based methyltransferase assay on H3; type: biochemical; settings: versus wild-type SMYD2; 30°C overnight, Western blot
Protocol: as §1

[4] = biological target: T1, SMYD2-F184A / PARP1(518–1014) interaction (Homo sapiens, UniProt Q9NRG4, F184A); experiment: ELISA inhibition of SMYD2-PARP1(518–1014) interaction by PARP1 peptide, F184A mutant; settings: SMYD2 pre-incubated with peptide, four-parameter logistic fit, triplicate, read-out: IC50 of inhibition of F184A mutant binding to coated PARP1 protein
T1 construct: Full-length human SMYD2 (residues 1–433) (SMYD2-WT); 6xHis-SUMO (N, cleaved yes); made in house
Protocol: ELISA solid-phase protein binding experiments were performed according to the previously described protocol ([22]). ELISA plates were prepared by coating PARP1, H3, or H4 onto the wells in a coating buffer containing 10 mM HEPES pH 7.5, 0.1 M KCl, and 3 mM MgCl2. After blocking the plates with 1% BSA, binding experiments were performed by adding different concentrations of SMYD2 proteins into the wells. For PARP1 peptide inhibition experiments, SMYD2 proteins were pre-incubated with the PARP1 peptide before being added to the wells. Bound SMYD2 proteins were probed with the anti-SMYD2 antibody (ab108217, Abcam), and the amount of binding was quantified using an HRP-conjugated secondary antibody (ab6721, Abcam) that generated a color signal from oxidizing the substrate 2,2′-azino-bis(3-ethylbenzthiazoline sulfonic acid). The absorbance of signals was measured at 420 nm using a microplate reader at 2-minute intervals for 15 minutes. The rate of change in absorbance obtained by linear regression was used to quantify the binding. IC50 and the concentration required for 50% saturation were obtained by fitting binding data using a four-parameter logistic regression model. For reciprocal binding experiments, SMYD2 proteins were coated onto the wells and bound PARP1 was detected by the anti-PARP1 antibody (ab191217, Abcam). All binding experiments were performed in triplicate.

T1 sequence (Q9NRG4 whole entry F184A, the tested form may be a part): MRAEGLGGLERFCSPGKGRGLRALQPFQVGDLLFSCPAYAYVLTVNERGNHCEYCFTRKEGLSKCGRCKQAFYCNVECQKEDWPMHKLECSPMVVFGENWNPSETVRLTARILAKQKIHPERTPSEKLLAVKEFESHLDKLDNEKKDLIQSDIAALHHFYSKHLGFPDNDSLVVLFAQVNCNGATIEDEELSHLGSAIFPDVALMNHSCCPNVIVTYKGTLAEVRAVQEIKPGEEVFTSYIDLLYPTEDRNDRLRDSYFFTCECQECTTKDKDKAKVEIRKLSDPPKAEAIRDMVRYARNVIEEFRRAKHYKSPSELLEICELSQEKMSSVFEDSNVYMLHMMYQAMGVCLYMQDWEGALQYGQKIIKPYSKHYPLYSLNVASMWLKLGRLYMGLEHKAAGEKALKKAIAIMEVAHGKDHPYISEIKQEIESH

methylation of H4 [1]	methylation level of PARP1 protein [2]	methylation of H3 [3]	pIC50 [4]	Substance
abolishes the methyltransferase activity	abolishes the methyltransferase activity	abolishes the methyltransferase activity		F184A mutant: SMYD2 mutant targeting the target lysine access channel at the active site
marked increase	notable increase	marked increase		L351A/W356A mutant: SMYD2 secondary-binding-site mutant targeting both subsites M and L
			~6.82	RMKLTLKGGAAVD [PARP1 peptide]
